Measured values as given in patent publication US20200138822A1, “TOPICAL COMPOSITIONS COMPRISING PENTOXIFYLLINE AND METHODS OF TREATMENT USING THE SAME” (priority 2018, published 2020).

Tests used:
[1] = system: oral ulcers of BD patients; assay: Randomized, open-label clinical study: index ulcer healing (ulcer area by digital image processing); format: in vivo, human
Procedure: (§1) A randomized, open-label, proof-of-concept clinical study was conducted under an FDA Investigational New Drug Application (IND). […] The CLC was administered orally as a pill and dosed as determined by the subject's physician. No less than every 48 hours, subjects' ulcers were photographed and examined using digital image processing to determine ulcer area, over a period of 14 days, which include daily collection of adverse events, ulcer number, and pain scores.
(§2) Inclusion criteria required the recent (<2 days) appearance of a new oral ulcer. Patients on immunosuppressant therapies were excluded from the study.
Patients were contacted daily for 14 consecutive days and were examined in-person no less than every 48 hours except for weekends. On the first day of entry into the study, the largest ulcer was identified and photographed as the “index ulcer”; its location was recorded and it was subsequently photographed at every in-person visit. Photographs were made with a paper ruler showing millimeter graduations lain in the same plane as the ulcer itself. Graphical processing software was used to compute the ulcer area in square millimeters; this software was calibrated from the paper ruler image and required drawing a line around the image of the ulcer margin.
Then, the proportion of patients with undetectable index ulcer (defined as those with an ulcer area of less than 1 mm^2) at day 4 was compared. Lastly, the trend in mean ulcer area over 14 days was compared as well as the results' sensitivity to outliers.

[2] = system: oral ulcers of BD patients; assay: Randomized, open-label clinical study: daily average number of oral ulcers; format: in vivo, human; details: during the two-week treatment period; mean +/- SD
Procedure: as §1, §2
The total number of oral ulcers were also counted at each in-person visit, and the daily average number of oral ulcers were calculated during the treatment period.

BD patients = assay: Randomized, open-label clinical study: adverse events / safety; details: 14-day study
Procedure: as §1, §2
All adverse events were reviewed in real time by the treating physician investigator.

[3] = times greater than PTX; cited from earlier work
[4] = Day 2, PTX+CLC n = 18, CLC n = 21
[5] = Day 4 clearance, undetectable = ulcer area less than 1 mm^2, n = 18 / n = 21

COc1cc2c(c(OC)c1OC)-c1ccc(OC)c(=O)cc1[C@@H](NC(C)=O)CC2 [CLC, colchicine]
Patients with Index Ulcer Growth - % [1, 4]: (80%) | Patients with Index Ulcer Growth - Number [1, 4]: 16 | Patients with Index Ulcer Shrinkage - % [1, 4]: (19%) | Patients with Index Ulcer Shrinkage - Number [1, 4]: 4 | Patients with Index Ulcer Shrinkage - % ([1]; Day 2, PTX+CLC n = 18, CLC n = 21, listed as CLC-only): 19% | Patients with Remaining Ulcers - % ([1]; Day 4, n = 18 / n = 21): (71%) | Patients with Remaining Ulcers - Number ([1]; Day 4, n = 18 / n = 21): 15 | Patients with Undetectable Ulcers - % [1, 5]: (29%) | Patients with Undetectable Ulcers - Number [1, 5]: 6 | Patients with Undetectable Ulcers - % ([1]; Day 4 clearance, undetectable = ulcer area less than 1 mm^2, n = 18 / n = 21, listed as CLC-only): 29% | Mean index ulcer area by treatment group (trend) ([1]; FIG. 1, over 14 days from day zero): first growing then slowly decreasing | Daily average number of oral ulcers [2]: 1.89+/−1.36 | Serious adverse events (BD patients): No serious adverse events occurred | Dysgeusia - % of patients (BD patients; adverse event): 0% | Dysgeusia - number of patients (BD patients; adverse event): 0 | Limited dermal rashes - % of patients (BD patients; adverse event): 29% | Limited dermal rashes - number of patients (BD patients; adverse event): 6 | Nausea - % of patients (BD patients; adverse event): 10% | Nausea - number of patients (BD patients; adverse event): 2 | Vomiting - number of patients (BD patients; adverse event): none

Cn1cnc2c1c(=O)n(CCCC(=O)O)c(=O)n2C [Metabolite V, 1-[3-carboxypropyl]-3,7-dimethylxanthine]
Plasma levels of metabolite relative to PTX [3]: eight

CC(O)CCCCn1c(=O)c2c(ncn2C)n(C)c1=O (stereo not shown) [Metabolite 1, 1-[5-hydroxyhexyl]-3,7-dimethylxanthine]
Plasma levels of metabolite relative to PTX [3]: five
